Data as given in patent publication US20220339260A1, “METHOD FOR PRODUCING INSULIN-PRODUCING CELL USING DIHYDROINDOLIZINONE DERIVATIVES” (TOKYO INSTITUTE OF TECHNOLOGY, priority 2019, published 2022).

test system: human iPS cell Toe strain; assay: Effect to promote differentiation from human iPS cells into insulin-producing cells (insulin-positive cell rate, Reference Example 1); format: cell-based; set-up: key to Activity: the sum of activity values at the two concentrations was obviously higher than the control untreated with compounds while being lower than the positive control was expressed as +; the sum was equivalent to the positive control was expressed as ++; the sum was higher than the positive control was expressed as +++; settings: activity intensity: sum of activity values (increment in insulin-positive cell rate) at 2 μM and 10 μM compared with positive control (compound of Synthesis Example 1)
From the text: The evaluation system of the effect (efficacy) to promote differentiation from human iPS cells into insulin-producing cells was constructed with reference to known information (Non Patent Document 6). Further, the medium used in each differentiation stage was also produced with reference to known information (differentiation media A to E (Media A to E) described in Non Patent Document 6 were used respectively for stages 1 to 5; however, a medium free from GLP-1 receptor agonist and nicotinamide was used as differentiation medium E).
In order to evaluate the efficacy of each compound, the compound of Synthesis Example 1 was used as a positive control, and dimethylsulfoxide (DMSO) (SIGMA, D2650) with a final concentration of 0.1% was used as a control untreated with compounds. Each compound was dissolved in DMSO, and two types of compound solutions were prepared so as to have final concentrations of 2 μM and 10 μM after the compound was added to the medium. In the following evaluation, the compound solutions were added to the medium to 0.1% that is the final concentration of DMSO.
First, induction from human iPS cell Toe strain (National Institutes of Biomedical Innovation, Health and Nutrition) into cells on day 7 of culture (2 days after replacement with differentiation medium C (cells in the differentiation process from FOXA2-positive primitive gut tube cells into PDX1-positive pancreatic progenitor cells)) was performed according to the method of Non Patent Document 6 for “inducing differentiation from human iPS cells into pancreatic β cells”, and the cells were collected and thereafter stored in liquid nitrogen using Bambanker (NIPPON Genetics Co, Ltd.) at 1×10^7 cells/mL/tube, to produce a cell stock for evaluation. The cell stock was dissolved at the start of the evaluation of efficacy, suspended in differentiation medium C for stage 3 (DMEM high glucose (Life technologies, 11965092), 0.25 μM SANT-1, 0.1 μM LDN193189 (Stemgent, 04-0074), 10 μM SB431542, 2 μM Retinoic acid (Stemgent, 04-0021), 1% B27 serum free supplement (Life technologies, 17504044) and thereafter seeded in a 96-well plate (Corning, #3340) coated with Synthemax II (Corning, #5656) at 1×10^5 cells/well. After culturing for 2 days, the medium was removed, and new differentiation medium C for stage 3 with the compound or only DMSO added was added thereto at 100 μL/well. After culturing for 2 days, the medium was removed, and new differentiation medium D for stage 4 (DMEM high glucose, 0.1 μM LDN193189, 5 μM TGF-β type I receptor kinase inhibitor II (Calbiochem 616452), 0.3 μM (−)-indolactam V (Enzo life science ALX-420-011-C300), 1% B27 serum free supplement) with the compound or only DMSO added was added thereto at 100 μL/well. After culturing for 2 to 3 days, the medium was removed, and new differentiation medium E for stage 5 (GLP-1 receptor agonist and nicotinamide-free; Knockout […] (Life technologies, 12660012), 1% B27 serum free supplement) with the compound or only DMSO added was added thereto at 200 μL/well. After culturing for 2 days, the medium was removed, and a 4% paraformaldehyde phosphorus acid buffer (Wako, 163-20145) was added thereto at 150 μL/well and left standing for 30 to 60 minutes at room temperature to fix the cells. A phosphorus acid buffer (PBS) (Takara, T9181) containing 1% Triton X-100 (Sigma, T8787) was left standing for 15 minutes at room temperature, then washed with PBS-T (Takara, T9183), and was blocked for 1 hour using 20% Blocking One (Nacalai tesque, Tokyo, Japan) diluted with PBS-T at room temperature. After the removal of Blocking One, guinea pig anti-insulin antibody (Abcam, ab7842) diluted 200-fold with 20% Blocking One was added thereto at 50 μL/well, followed by standing at 4° C. overnight. […]

Compound	Activity
Cc1nc(NC(=O)C2CCC(=O)c3cccn32)sc1-c1ccc2c(c1)OC(F)(F)O2 (stereo not drawn) [Example 84]	+++
O=C1CCC(C(=O)Nc2ncc(-c3cccc(OC(F)(F)F)c3)s2)n2cccc21 (stereo not drawn) [Example 25]	+++
O=C1CCC(C(=O)Nc2nc3ccc(-c4ccc(OC(F)(F)F)cc4)cc3s2)n2cccc21 (stereo not drawn) [Example 59]	+++
Cc1nc(NC(=O)C2CCC(=O)c3cccn32)sc1C1=CCN(C(=O)OC(C)(C)C)CC1 (stereo not drawn) [Example 90]	+++
Cc1ccc(-c2cnc(NC(=O)C3CCC(=O)c4cccn43)s2)o1 (stereo not drawn) [Example 54]	+
CC(C)NC(=O)N1CC=C(c2cnc(NC(=O)C3CCC(=O)c4cccn43)s2)CC1 (stereo not drawn) [Example 98]	++
O=C1CCC(C(=O)Nc2nc3ccc(-c4ccc(OC(F)F)cc4)cc3s2)n2cccc21 (stereo not drawn) [Example 60]	++
CC(C)(C)Oc1ccc(-c2ccc(NC(=O)C3CCC(=O)c4cccn43)c(F)c2)cc1 (stereo not drawn) [Example 80]	+
Cc1cccc(-c2cnc(NC(=O)C3(C)CCC(=O)c4cccn43)s2)c1 (stereo not drawn) [Example 67]	++
Cc1nc(NC(=O)C2CCC(=O)c3cccn32)sc1-c1cnc(OCC(C)C)c(Cl)c1 (stereo not drawn) [Example 87]	+++
CC(C)(C)OC(=O)Oc1ccc(-c2cnc(NC(=O)C3CCC(=O)c4cccn43)s2)cc1 (stereo not drawn) [Example 48]	+
CC1(C(=O)Nc2ncc(-c3ccc(OC(F)(F)F)c(Cl)c3)s2)CCC(=O)c2cccn21 (stereo not drawn) [Example 71]	+++
Cc1nc(NC(=O)C2CCC(=O)c3cccn32)sc1-c1ccc(OCC(C)C)cc1 (stereo not drawn) [Example 86]	+++
O=C1CCC(C(=O)Nc2ncc(-c3ccc(Cl)cc3)s2)n2cccc21 (stereo not drawn) [Example 12]	++
Cc1nc(NC(=O)C2CCC(=O)c3cccn32)sc1-c1ccc(OC(C)(C)C)cc1 (stereo not drawn) [Example 35]	+++
O=C1CCC(C(=O)Nc2ncc(-c3ccc(OCc4ccccc4)cc3)s2)n2cccc21 (stereo not drawn) [Example 32]	+++
O=C1CCC(C(=O)Nc2nc3ccc(-c4ccc(F)cc4)cc3s2)n2cccc21 (stereo not drawn) [Example 94]	+++
CC(C)Oc1ccc(-c2cnc(NC(=O)C3CCC(=O)c4cccn43)s2)cc1 (stereo not drawn) [Example 33]	+++
O=C1CCC(C(=O)Nc2ccc(-c3ccc4c(c3)OC(F)(F)O4)cc2)n2cccc21 (stereo not drawn) [Example 74]	+
O=C1CCC(C(=O)Nc2ncc(-c3ccc(F)cc3)s2)n2cccc21 (stereo not drawn) [Example 16]	++

Compound	Activity
CC(C)(C)OC(=O)N1CC=C(c2cnc(NC(=O)C3CCC(=O)c4cccn43)s2)CC1 (stereo not drawn) [Example 51]	+++
O=C1CCC(C(=O)Nc2ncc(-c3cccc(F)c3)s2)n2cccc21 (stereo not drawn) [Example 15]	+
O=C1CCC(C(=O)Nc2ccc3nc(-c4ccc(OC(F)(F)F)cc4)sc3c2)n2cccc21 (stereo not drawn) [Example 83]	+
Cc1cc(-c2ccc(OC(F)(F)F)cc2)ccc1NC(=O)C1CCC(=O)c2cccn21 (stereo not drawn) [Example 81]	+
Cc1cc(OC(F)(F)F)ccc1-c1cnc(NC(=O)C2CCC(=O)c3cccn32)s1 (stereo not drawn) [Example 28]	+++
O=C1CCC(C(=O)Nc2ncc(-c3ccc(OC(F)(F)F)c(Cl)c3)s2)n2cccc21 (stereo not drawn) [Example 30]	+++
Cc1ccc(-c2cnc(NC(=O)C3CCC(=O)c4cccn43)s2)cc1 (stereo not drawn) [Example 18]	++
CC(C)COc1ncc(-c2cnc(NC(=O)C3CCC(=O)c4cccn43)s2)cc1Cl (stereo not drawn) [Example 52]	+++
O=C(c1ccccc1)c1ccc(-c2cnc(NC(=O)C3CCC(=O)c4cccn43)s2)cc1 (stereo not drawn) [Example 95]	+++
O=C1CCC(C(=O)Nc2ccc(-c3ccc(OC(F)(F)F)cc3)cc2)n2c(Br)ccc21 (stereo not drawn) [Example 77]	+
Cc1ccc(-c2cnc(NC(=O)C3(C)CCC(=O)c4cccn43)s2)cc1 (stereo not drawn) [Example 66]	++
CC(C)c1nc(NC(=O)C2CCC(=O)c3cccn32)sc1-c1ccc(OC(F)(F)F)cc1 (stereo not drawn) [Example 96]	+
O=C1CCC(C(=O)Nc2ncc(-c3ccc4ccccc4c3)s2)n2cccc21 (stereo not drawn) [Example 24]	+
Cc1cc(-c2ccc3nc(NC(=O)C4CCC(=O)c5cccn54)sc3c2)ccc1OC(F)(F)F (stereo not drawn) [Example 92]	+++
O=C1CCC(C(=O)Nc2ncc(-c3ccc4c(c3)OCO4)s2)n2cccc21 (stereo not drawn) [Example 4]	++
O=C1CCC(C(=O)Nc2ccc(-c3ccc(OC(F)(F)F)cc3)cc2F)n2cccc21 (stereo not drawn) [Example 78]	++
O=C1CCC(C(=O)Nc2ncc(-c3ccc(Oc4ccccc4)cc3)s2)n2cccc21 (stereo not drawn) [Example 46]	+++
O=C1CCC(C(=O)Nc2ncc(-c3ccc(Cl)s3)s2)n2cccc21 (stereo not drawn) [Example 56]	++
COC(=O)c1nc(NC(=O)C2CCC(=O)c3cccn32)sc1-c1ccc(OCC(F)(F)F)cc1 (stereo not drawn) [Example 99]	++
CC1(C(=O)Nc2ncc(-c3ccc4c(c3)OC(F)(F)O4)s2)CCC(=O)c2cccn21 (stereo not drawn) [Example 68]	++

Compound	Activity
O=C1CCC(C(=O)Nc2ncc(-c3cccc(Cl)c3)s2)n2cccc21 (stereo not drawn) [Example 13]	++
CC(C)(C)OC(=O)N1CC=C(c2cnc(NC(=O)C3CCC(=O)c4cccn43)s2)C1 (stereo not drawn) [Example 53]	++
O=C1CCC(C(=O)Nc2ncc(-c3ccc(OC(F)(F)F)cc3)s2)n2cc(Cl)cc21 (stereo not drawn) [Example 64]	++
O=C1CCC(C(=O)Nc2nc3ccc(-c4ccc5c(c4)OC(F)(F)O5)cc3s2)n2cccc21 (stereo not drawn) [Example 61]	+
Cc1nc(NC(=O)C2CCC(=O)c3cccn32)sc1-c1ccc(OCc2ccccc2)c(F)c1 (stereo not drawn) [Example 85]	+++
CN(C)C(=O)COc1ccc(-c2cnc(NC(=O)C3CCC(=O)c4cccn43)s2)cc1 (stereo not drawn) [Example 8]	++
Cc1cc2n(c1)C(C(=O)Nc1ncc(-c3ccc(OC(F)(F)F)cc3)s1)CCC2=O (stereo not drawn) [Example 62]	+++
O=C1CCC(C(=O)Nc2ncc(C3=CCCCC3)s2)n2cccc21 (stereo not drawn) [Example 50]	+
Cc1nc(NC(=O)C2CCC(=O)c3cccn32)sc1-c1ccc(OC(F)(F)F)cc1 (stereo not drawn) [Example 36]	+++
O=C1CCC(C(=O)Nc2ncc(-c3ccc(OCc4ccccc4)cc3F)s2)n2cccc21 (stereo not drawn) [Example 44]	+
O=C1CCC(C(=O)Nc2ccc(-c3ccc(OC(F)F)cc3)cc2)n2cccc21 (stereo not drawn) [Example 75]	+
NC(=O)c1ccc(-c2cnc(NC(=O)C3CCC(=O)c4cccn43)s2)cc1 (stereo not drawn) [Example 6]	+
Cc1ccccc1-c1cnc(NC(=O)C2CCC(=O)c3cccn32)s1 (stereo not drawn) [Example 19]	++
O=C1CCC(C(=O)Nc2ccc(-c3ccc(OC(F)(F)F)cc3)cn2)n2cccc21 (stereo not drawn) [Example 82]	+
COc1cccc(-c2cnc(NC(=O)C3CCC(=O)c4cccn43)s2)c1 (stereo not drawn) [Example 27]	++
Cc1nc(NC(=O)C2CCC(=O)c3cccn32)sc1-c1ccc(OC(F)F)cc1 (stereo not drawn) [Example 91]	+++
Cc1nc(C)c(-c2cnc(NC(=O)C3CCC(=O)c4cccn43)s2)s1 (stereo not drawn) [Example 55]	+
Cc1cccc(-c2cnc(NC(=O)C3CCC(=O)c4cccn43)s2)c1 (stereo not drawn) [Example 20]	++
O=C(O)c1ccc(-c2cnc(NC(=O)C3CCC(=O)c4cccn43)s2)cc1 (stereo not drawn) [Example 5]	+
CC1(C(=O)Nc2ncc(-c3ccc(OC(F)(F)F)cc3)s2)CCC(=O)c2cccn21 (stereo not drawn) [Example 65]	+++
